# Source: ChEMBL document CHEMBL5726207, “Substituted N,2-diarylquinoline-4-carboxamides and the use thereof as anti-inflammatory agents” (2019)
# “And” between values parts separate entries of the source, which are not always exact repeats. Identical values can stand only once.
# Biological target: Prostaglandin F2-alpha receptor (Homo sapiens, UniProt P43088)
# Assay: 470 nm/em. 525 nm in a fluorescence measuring instrument (FLIPR Tetra, MolecularDevices) for 120 seconds.
# Type: cell-based
# Sequence of Prostaglandin F2-alpha receptor (P43088 whole entry): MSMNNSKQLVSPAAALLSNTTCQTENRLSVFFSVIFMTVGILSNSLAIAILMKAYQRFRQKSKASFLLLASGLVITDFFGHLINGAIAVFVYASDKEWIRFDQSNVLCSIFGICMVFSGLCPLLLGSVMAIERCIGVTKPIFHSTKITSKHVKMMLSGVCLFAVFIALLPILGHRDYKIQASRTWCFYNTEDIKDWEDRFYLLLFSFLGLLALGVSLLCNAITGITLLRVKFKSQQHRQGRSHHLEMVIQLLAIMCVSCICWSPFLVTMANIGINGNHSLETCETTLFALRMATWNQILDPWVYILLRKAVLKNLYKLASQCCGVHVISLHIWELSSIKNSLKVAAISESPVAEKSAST
compound,measurement,value
Cc1c(-c2ccccc2)nc2ccc(Br)cc2c1C(=O)Nc1ccc(C(=O)O)cc1F,IC50,53 nM and 47 nM
